From patent US7482027B2, “Composition for the prevention or treatment of diseases associated with angiogenesis” (AngioLab, Inc., priority 2005, dated 2009) come the findings set out here.

The assay deals with HUVEC tube formation. Nature of the assay: HUVEC tube formation inhibition assay. It counts as cell-based, Human. More on the design: key to Tube formation inhibition: −: no inhibition of tube formation; +/−: rare inhibition of tube formation; +: light inhibition of tube formation and slight tube cleavage; ++: significant inhibition of tube formation and heavy tube cleavage; +++: no tube formation. The settings on record: 50 μg/ml; for Tube formation inhibition: TABLE 2, HUVEC on Matrigel, 18 hours; for Inhibition of HUVEC tube formation (in words): text summary of TABLES 1 and 2. Here is the method:
Human umbilical vein endothelial cells (HUVECs) were isolated from freshly obtained cords after cesarean section according to Grants' method (Grants D S et al., Cell, 58, pp 923-943, 1989). The isolated HUVECs were grown in culture media comprising M-199 (Gibco BRL, 31100-035), 10% FBS, 50 μg/ml ECGS (Endothelial cell growth supplement, Sigma E2795), and 50 μg/ml heparin (Sigma H3149).
HUVECs isolated in REFERENCE EXAMPLE 1 were cultured within passage 5, and then were divided into 20,000 to 50,000 cells per well of 48 well plate coated with, Matrigel (BD Biosciences, Bedford, Mass.). Crude extracts, non-polar solvent extracts, or fractions of C. officinale of EXAMPLES 1 to 4 were added to the above HUVEC culture well at the concentration of 50 μg/ml, respectively, and DMSO was added as a control. They were grown with culture media of the above REFERENCE EXAMPLE 1.
After HUVECs were further incubated at 37° C. for 18 hours, tube formation was observed using microscope. The results were summarized in TABLES 1 and 2 (−: no inhibition of tube formation, +/− rare inhibition of tube formation, +: light inhibition of tube formation and slight tube cleavage, ++: significant inhibition of tube formation and heavy tube cleavage, +++: no tube formation).

SMILES strings stand for the structures.

For `C=CC(O)C#CC#CC(O)C=C` (single isomer, unassigned) [AS44-C-2-D-b-IV, 1,9-decadiene-4,6-diyne-3,8-diol], the Tube formation inhibition result is recorded as “+++” and the “Inhibition of HUVEC tube formation (in words)” value is “strongly inhibited HUVEC tube formation”.
On the same counts, the results for `CCCCC1OC(=O)c2c(O)cccc21` (single isomer, unassigned) [AS44-C-2-C-b-III, 3-butyl-7-hydroxyphthalide] are “+++” and “strongly inhibited HUVEC tube formation”.
